Reference: patent publication US20200255884A1, “METHOD OF DETECTION OF DNA END(S) AND ITS USE” (INTODNA SP. Z O.O., priority 2017, published 2020)

System: HeLa 21-4 cells
Experiment: DNA ends detection in fixed HeLa cells subjected to damaging agents (H2O2, Tpt), Procedure 1
Assay type: cell-based
Conditions: 30 min at 37 °C, H2O2 4 mM, Tpt 20 μM
Description: Procedure: • 1. Pre-preparation (optional): • Incubation of live cells with 0.5-10 mM Tris (5 min-1 h at room temperature (RT)), cells should be monitored for morphological abnormalities. • 2. Fixation and permeabilization: • a. Incubation with 1%-4% formaldehyde solution, 10-15 min, 4° C. (optional) • b. Incubation with an […] detergent (e.g. Triton X-100 (0.25-3%) 10 min-1 h, RT. (optional) • c. Incubation in 70% ethanol in water, 1 h minimum but preferred 12-18 h, −20° C., sample should be stable for several months. (optional but most preferred) • 3. Pre-blocking (optional): • a. Wash (PBS 1×5 min) • b. Streptavidin solution—incubation performed on a droplet, 30 min, RT • c. Wash (PBS 3×5 min) • d. Biotin solution—incubation performed on a droplet, 30 min, RT • e. Wash (PBS 3×5 min) • 4. Increasing accessibility of DNA ends: • Incubation with 0.5-10 mM EDTA in water, 10 min-1 h, RT. • 5. Incorporation procedure: • Incorporation of unmodified and modified nucleotides (e.g. BrdU) using terminal deoxynucleotidyl transferase: • a. incubation is performed on a droplet in a humid chamber • b. samples are rinsed in wash buffers • 6. Blocking: • Incubation with 1-5% BSA solution in PBS (from 1 h to overnight in 4° C., RT). • 7. Incubation with primary antibodies—performed on a droplet in a humid chamber: • a. primary antibodies type 1 (e.g. mouse monoclonal against BrdU), preferred dilution 1:100 in 1-5% BSA, 1 h, RT • b. wash (PBS 3×5 min) • c. primary antibodies type 2 (e.g. rabbit polyclonal against BrdU), preferred dilution 1:100 in 1-5% BSA, 1 h, RT • d. wash (PBS 3×5 min) • 8. PLA procedure: • a. incubation with PLA Probes diluted in 1% BSA (37° C., 60 min, reaction on a droplet, in a humid chamber) in 40 μl of the reaction mixture per one coverslip: • 8 μl of PLA Probe MINUS stock (e.g. anti-mouse) • 8 μl of PLA Probe PLUS stock (e.g. anti-rabbit) • 24 μl of 1% BSA • b. wash samples with Wash Buffer A (2×5 min) • c. ligation—incubation (37° C., 30 min, reaction on a droplet, in a humid chamber) in 40 μl of the reaction mixture per one coverslip: • 8 μl of 5× Ligation stock (Sigma, Duolink, DUO82009), • 31 μl of ultrapure, RNAse/DNAse free, distilled water, • 1 μl of Ligase (1 U/μl) (Sigma, Duolink, DUO82027 or DUO82029) • d. wash samples with Wash Buffer A (2×2 min) • e. amplification—incubation (37° C., 100 min, reaction performed on a droplet, in a humid chamber) in 40 μl of the reaction mixture per one coverslip: • 8 μl of 5× Amplification stock (Sigma, Duolink, DUO82060 or DUO82011), • 31.5 μl of ultrapure, RNAse/DNAse free, distilled water, • 0.5 μl of Polymerase (10 U/μl) (Sigma, Duolink, DUO82028 or DUO82030) • 9. Imaging of samples in PBS using a fluorescence microscope. […]

OO [H2O2]
percentage of cells that show signs of heavy DNA damage (apoptotic cells) in the population (untreated less than 5%): approximately 30%
average number of detectable regions of incorporation of BrdU (free ends of DNA) per cell (± standard error of the mean): 31.57±8.61
